In one assay the test system is cancer cells. Kind of assay: Matrigel chemoinvasion assay in Boyden chambers. The class given is cell-based. The conditions noted are these: for inhibition at 50 µM: read-out: % Inhibition of Chemoinvasion 50 uM.
The test system of another assay is Endothelial cells. Description: Endothelial cell tube formation (capillary formation). Format: cell-based.
The target of a further assay is T1, MMP2 (Homo sapiens, UniProt P08253).
T1 sequence (P08253 110-660): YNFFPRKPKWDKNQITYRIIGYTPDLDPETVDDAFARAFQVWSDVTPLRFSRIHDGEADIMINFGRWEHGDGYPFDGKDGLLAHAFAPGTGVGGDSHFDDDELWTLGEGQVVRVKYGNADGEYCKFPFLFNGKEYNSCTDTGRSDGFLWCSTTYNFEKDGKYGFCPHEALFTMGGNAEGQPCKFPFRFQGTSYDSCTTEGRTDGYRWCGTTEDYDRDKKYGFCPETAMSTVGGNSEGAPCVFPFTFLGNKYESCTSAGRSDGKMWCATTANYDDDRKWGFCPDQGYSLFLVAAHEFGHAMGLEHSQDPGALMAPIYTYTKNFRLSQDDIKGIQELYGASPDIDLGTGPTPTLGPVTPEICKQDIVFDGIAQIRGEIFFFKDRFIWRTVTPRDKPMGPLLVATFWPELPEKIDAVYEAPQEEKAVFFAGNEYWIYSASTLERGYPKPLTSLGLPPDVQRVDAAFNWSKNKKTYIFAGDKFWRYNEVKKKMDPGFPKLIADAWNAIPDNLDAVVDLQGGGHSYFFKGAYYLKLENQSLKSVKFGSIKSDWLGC
Description: Activity on pure MMP2 enzyme. Format: biochemical.

For a further assay, the system named is murine melanoma. Description: Metastasis formation in the murine melanoma model. The class given is in vivo, mice. As to conditions: 50 mg/kg daily injections for 21 d, lung tumors counted, vs untreated animals.

One may read the inhibition as the drop in the measured response relative to a control, in per cent. As usually defined, the IC50 is the concentration that inhibits the measured activity by half.

Structures are written as SMILES. Read-outs that look alike come from different tables or passages of the source.

For the molecule `CC(=O)NCCNC(=O)P(=O)(O)O` [Example 10, N-(2-acetamidoethyl)phosphonoformamide], the “concentration at which active in the Boyden chamber chemoinvasion assay” value (“concentration at which active” for short) with cancer cells was determined as 100 µM.

As to `O=C(c1ccc(Cl)cc1)P(=O)([O-])[O-].[Na+].[Na+]` [Compound 8, p-chlorobenzoylphosphonic acid sodium salt], in the assay on cancer cells, the Activity result is “+++ (key: ++++: active at submicromolar concen-tration; +++: active at 1-10 μM; ++: active at 50-100 μM; +: active at 100 μM; −: not active at 100 μM)” and the MMP inhibiting activity result is given as “considerable MMP inhibiting activity”.

Turning to `CN(C)CCNC(=O)P(=O)(O)O` [Compound 26, N-(2-dimethylaminoethyl)phosphonoformamide Betaine], the inhibition at 50 µM turned out to be 75% with Endothelial cells (Endothelial cell, read-out: % Inhibition of Capillary Formation 50 µM) and 66% in the assay on cancer cells. At MMP2, this molecule yielded an IC50 of 25 nM. The “% Inhibition of Metastasis Formation 50 mg/kg for 21 d” value (“% Inhibition … for 21 d” below) in the assay on murine melanoma was 73%. Also, the Activity result with cancer cells is given as “++++ (key: ++++: active at submicromolar concen-tration; +++: active at 1-10 μM; ++: active at 50-100 μM; +: active at 100 μM; −: not active at 100 μM)”.

For `CCC(=O)P(=O)([O-])OC.[Na+]` [Compound 11], in the assay on cancer cells, the Activity entry was “+ (key: ++++: active at submicromolar concen-tration; +++: active at 1-10 μM; ++: active at 50-100 μM; +: active at 100 μM; −: not active at 100 μM)”.

As to `O=C(c1ccccc1)P(=O)([O-])O.[Na+]` [Compound 7], the Activity result with cancer cells is “++ (key: ++++: active at submicromolar concen-tration; +++: active at 1-10 μM; ++: active at 50-100 μM; +: active at 100 μM; −: not active at 100 μM)”.

On MMP2, `O=C(NC1CCCCC1)P(=O)(O)O` [Example 5, Hydrogen Sodium N-cyclohexylcarbamoylphosphonate] gave a 50% inhibitory concentration (IC50) of 80 nM. In the assay with cancer cells, the “concentration at which active” value is 1 µM.

In the case of `CNC(=O)[C@H](Cc1ccccc1)NC(=O)[C@H](CC(C)C)NC(=O)P(=O)(O)O` [Example 19, Phosphonoformyl-Leu-Phe-NHMe], the “% Inhibition of Capillary Formation 50 UM” value in the assay with Endothelial cells came out at 60%. Further, the “% Inhibition of Chemoinvasion 50 uM” value with cancer cells came out at 55%.

Regarding `CNC(=O)[C@H](Cc1ccc(OC)cc1)NC(=O)[C@@H](CC(=O)NO)CC(C)C` [SC-44463, reference compound], the “% Inhibition … for 21 d” value with murine melanoma is given as 70-75%.

As to `O=C(NCc1ccccc1)P(=O)([O-])O.[Na+]` [Compound 16], the Activity result in the assay on cancer cells is given as “++ (key: ++++: active at submicromolar concen-tration; +++: active at 1-10 μM; ++: active at 50-100 μM; +: active at 100 μM; −: not active at 100 μM)”.

Consider `O=C(NCCSCc1ccccc1)P(=O)(O)O` [Example 17, N-(S-benzylmercaptoethyl)carbamoylphosphonic Acid], for which the “% Inhibition of Capillary Formation 50 UM” value in the assay on Endothelial cells is given as 58%. For the same molecule, the “% Inhibition of Chemoinvasion 50 uM” value with cancer cells (50 uM) was 61%.

`O=C(NC1CCCCC1)P(=O)(O)O` [Compound 33]: in the assay with cancer cells, the Activity result is recorded as “++++ (key: ++++: active at submicromolar concen-tration; +++: active at 1-10 μM; ++: active at 50-100 μM; +: active at 100 μM; −: not active at 100 μM)”.

`O=C(OCc1ccccc1)P(=O)([O-])O.[Na+]` [Compound 5]: in the assay with cancer cells, the Activity entry was “++ (key: ++++: active at submicromolar concen-tration; +++: active at 1-10 μM; ++: active at 50-100 μM; +: active at 100 μM; −: not active at 100 μM)”.

As to `CNC(=O)[C@H](Cc1ccc(OC)cc1)NC(=O)[C@H](CC(C)C)NC(=O)P(=O)(O)O` [Example 20, Phosphonoformyl-Leu-Tyr(Me)-NHMe], the “% Inhibition of Capillary Formation 50 UM” value in the assay with Endothelial cells was 38%. The “% Inhibition … for 21 d” value in the assay on murine melanoma is recorded as 75%. Besides, the “% Inhibition of Chemoinvasion 50 uM” value in the assay on cancer cells (50 uM) amounted to 39%.

As for `O=C(NCCN1CCOCC1)P(=O)(O)O` [Example 7, N-(2-[4-morpholino]ethyl)phosphonoformamide Betaine], in the assay with cancer cells, the “concentration at which active” value was found to be 100 µM.

In the case of `COP(=O)([O-])C(=O)Cc1ccccc1.[Na+]` [Compound 13], in the assay with cancer cells, the Activity entry was “++ (key: ++++: active at submicromolar concen-tration; +++: active at 1-10 μM; ++: active at 50-100 μM; +: active at 100 μM; −: not active at 100 μM)”.

As to `O=C(Cc1ccccc1)P(=O)([O-])O.[Na+]` [Compound 12], in the assay on cancer cells, the Activity result is recorded as “+ (key: ++++: active at submicromolar concen-tration; +++: active at 1-10 μM; ++: active at 50-100 μM; +: active at 100 μM; −: not active at 100 μM)”.

Turning to `CCC(=NO)P(=O)([O-])OC.[Li+]` [Compound 14], in the assay on cancer cells, the Activity entry is on record as “+ (key: ++++: active at submicromolar concen-tration; +++: active at 1-10 μM; ++: active at 50-100 μM; +: active at 100 μM; −: not active at 100 μM)”.

As for `O=C(NC1CCCC1)P(=O)(O)O` [Example 16, N-cyclopentylcarbamoylphosphonic Acid], the “% Inhibition of Capillary Formation 50 UM” value in the assay on Endothelial cells worked out at 70%. In addition, the “% Inhibition … for 21 d” value with murine melanoma was found to be 70%. Further, the “% Inhibition of Chemoinvasion 50 uM” value with cancer cells (50 uM) was 65%.

In the case of `O=C(NCCN1CCCC1)P(=O)(O)O` [Example 9, N-(2-[1-pyrrolidino]ethyl)phosphonoformamide Betaine], the “concentration at which active” value with cancer cells amounted to 100 µM.

`CCOC([O-])[PH](=O)C(=O)N(C)O.[Na+]` (stereo not shown) [Compound 1]: the Activity entry with cancer cells is given as “++ (key: ++++: active at submicromolar concen-tration; +++: active at 1-10 μM; ++: active at 50-100 μM; +: active at 100 μM; −: not active at 100 μM)”.

Turning to `CCC(=O)P(=O)([O-])O.[Na+]` [Compound 10], the Activity entry with cancer cells was “+ (key: ++++: active at submicromolar concen-tration; +++: active at 1-10 μM; ++: active at 50-100 μM; +: active at 100 μM; −: not active at 100 μM)”.

For the molecule `O=C(NCCN1CCCCC1)P(=O)(O)O` [Example 8, N-(2-[1-piperidino]ethyl)phosphonoformamide Betaine], the “concentration at which active” value in the assay with cancer cells was determined as 100 µM.

As for `O=C(NCCc1c[nH]cn1)P(=O)(O)O` [Example 15, Phosphonoformylhistamine], the “% Inhibition of Chemoinvasion 50 uM” value in the assay with cancer cells is 15%.

As for `CCCCNC(=O)P(=O)([O-])O.[Na+]` [Compound 23], the Activity entry in the assay with cancer cells was “+ (key: ++++: active at submicromolar concen-tration; +++: active at 1-10 μM; ++: active at 50-100 μM; +: active at 100 μM; −: not active at 100 μM)”.

As for `CNC(=O)[C@@H](NC(=O)[C@H](CC(C)C)NC(=O)P(=O)(O)O)C(C)C` [Example 18, Phosphonoformyl-Leu-Val-NHMe], the “% Inhibition of Capillary Formation 50 UM” value in the assay on Endothelial cells is listed as 42%. Also, the “% Inhibition of Chemoinvasion 50 uM” value with cancer cells (50 uM) worked out at 38%.

Take `O=C(NCCc1ccccc1)P(=O)([O-])O.[Na+]` [Compound 17]: in the assay on cancer cells (preliminary screening, invasion/chemotaxis chambers vs untreated preparations), the Activity result was “+ (active at 100 μM)”.

Regarding `CNC(=O)C(NC(=O)C(Cc1ccccc1)NC(=O)P(=O)(O)O)C(C)C` (stereo not drawn) [Example 21, Phosphonoformyl-Phe-Val-CONHMe], in the assay with cancer cells (50 uM), the “% Inhibition of Chemoinvasion 50 uM” value is 41%.

For `CNC(=O)[C@H](Cc1ccccc1)NC(=O)[C@H](CC(C)C)[C@H](CSc1cccs1)C(=O)NO` [Batimastat, reference compound], the inhibition at 50 µM in the assay on cancer cells was determined as 40%.

Consider `O=P([O-])([O-])Cc1ccc(Cl)cc1.[Na+].[Na+]` [Compound 38, p-chlorobenzylphosphonic acid sodium salt, reference compound], for which, in the assay on cancer cells, the Activity entry is recorded as “− (key: ++++: active at submicromolar concen-tration; +++: active at 1-10 μM; ++: active at 50-100 μM; +: active at 100 μM; −: not active at 100 μM)” and the MMP inhibiting activity result is given as “completely devoid of inhibitory activity”.

Values taken from US7468359B2, “Compositions comprising oxophosphonate-based metalloproteinase inhibitors” (Yissum Research Develpment Company of the Hebrew University …, priority 1999, dated 2008).
